Results published in patent US10183036B2, “Use of nicotinic acid riboside or nicotinamide riboside derivatives, and reduced derivatives thereof, as NAD+ increasing precursors” (Chromadex Inc., priority 2016, dated 2019).

Key:
Hela cells = assay: NAD content in cultured Hela cells supplemented with NAD+ precursor (EnzyChrom NAD+/NADH assay kit); type: cell-based; details: 100 μM precursor, 24 h at 37° C., control = 100.0; for activity at 100 µM: Homo sapiens
Description: Hela cells (passages 5-9) were grown in cell culture medium DMEM with 10% serum and were seeded in 6-well plates with a density of 3×10^5 cells per well containing 1 ml of culture medium overnight. The wells were aspirated, washed with PBS and 2 mL of fresh cell culture media was added. […] The media was aspirated and the wells washed with PBS, and for each condition 1×10^5 cells were isolated and analyzed using an ENZYCHROM™ NAD+/NADH ASSAY KIT (E2ND-100) following the manufacturer protocol (BioAssay Systems, Hayward, Calif.). This standard assay provides a quantitative colorimetric determination of NAD+/NADH at 565 nm.
Further, FIG. 9 presents the same data as a fold-increase in NAD over control. FIG. 8 presents a measurement of absolute NAD values (μM) in Hela cells (n=4) cultured in growth media supplemented with 100 μM of the corresponding NAD^+ precursor (nicotinyl riboside test compound) for 24 hours, versus control (NAD content in cells measured in the absence of treatment compound). A control value was determined for each replicate data set.

cells = details: Kulikova et al. 2015; cited from earlier work
[1] = Stability in aqueous solution at various temperature and pH; type: physicochemical
Description: Nicotinamide riboside (NR) was prepared in 1000 ppm aqueous solution (w/v) at 2.5, 3.5 and 4.7 pH levels. Nicotinic acid riboside (NAR) was prepared n 1000 ppm aqueous solution (w/v) at 2.5, 3.5 and 6.2 pH levels. The six sample solutions were aliquoted into various small sealed vials to be used as individual sample pull points for analysis.

Compound	activity at 100 µM (Hela cells)	other results
CC(=O)OC[C@H]1O[C@@H]([n+]2cccc(C(N)=O)c2)[C@H](OC(C)=O)[C@@H]1OC(C)=O [NR TA, 1-(2′,3′,5′-triacetyl-beta-D-ribofuranosyl)-nicotinamide]	199%	
NC(=O)c1ccc[n+]([C@@H]2O[C@H](CO)[C@@H](O)[C@H]2O)c1 [NR, Nicotinamide riboside]	141%	amount required to maintain viability relative to NAR (cells): 10 times
O=C(O)C1=CN([C@@H]2O[C@H](CO)[C@@H](O)[C@H]2O)C=CC1 [NARH, 1-(beta-D-ribofuranosyl)-1,4-dihydronicotinic acid]	147%	
CC(=O)OC[C@H]1O[C@@H](N2C=CCC(C(N)=O)=C2)[C@H](OC(C)=O)[C@@H]1OC(C)=O [NRH TA, 1-(2′,3′,5′-triacetyl-beta-D-ribofuranosyl)-1,4-dihydronicotinamide]	146%	
CC(=O)OC[C@H]1O[C@@H]([n+]2cccc(C(=O)O)c2)[C@H](OC(C)=O)[C@@H]1OC(C)=O [NAR TA, 1-(2′,3′,5′-triacetyl-beta-D-ribofuranosyl)-nicotinic acid]	173%	
O=C(O)c1ccc[n+]([C@@H]2O[C@H](CO)[C@H](O)[C@H]2O)c1 [NAR, Nicotinic acid riboside]	295%	concentration that supports cell survival (cells): about 1 micromolar; assay (concentration remaining) after storage ([1]; 1000 ppm aqueous solution, 4° C., after 140 days): greater than 95%; stability in comparison to NR ([1]; aqueous solution, 4° C. and 25° C., all measured pH levels): much greater stability; stability over time in weeks ([1]; aqueous solution, higher temperature and lower pH): markedly decreased
CC(=O)O[C@@H]1[C@@H](COC(=O)c2cccnc2)OC(=O)[C@@H]1OC(C)=O [cyclic, 2′,3′-diacetyl-5′-nicotinoyl ribolactone]		NAD % vs control (Hela cells): 178.0%
